Experimental data taken from patent US12472168B2, “Ring-fused thiazolino 2-pyridones, methods for preparation thereof and their use in the treatment and/or prevention of a disease involving gram-positive bacteria” (Quretech Bio AB, priority 2017, dated 2025).
≈ marks a conversion by molar mass, not a printed value.

Tests used:
Streptococcus = test: MIC and MBC assays; assay type: cell-based; conditions: compound alone, no antibiotic
Protocol: (§1) MIC was defined by the lowest concentration of the test compound that inhibits visible growth of pathogen of interest. The optical density of the pathogen of interest culture was measured by OD600.
(§2) MBC was determined colony forming units (CFUs) enumeration by serially diluting and plating bacterial cultures on BHI plates.
(§3) Thus, no antibiotic was used in Table 2.

E. faecalis = test: MIC and MBC assays; assay type: cell-based; conditions: Enterococcus faecalis, compound alone, no antibiotic; for MIC: overnight (18 hrs)
Protocol: as §1, §2, §3

MRSA [1] = test: Minimum Inhibitory Concentration (MIC) and Minimum Bactericidal Concentration (MBC) assays; assay type: cell-based, Methicillin-resistant Staphylococcus aureus; conditions: Staphylococcus aureus, compound alone, no antibiotic; for MIC: 18 h, overnight (18 hrs), read-out: MIC
Protocol: as §1, §2, §3

C. diff = test: MIC and MBC assays; assay type: cell-based, Clostridium difficile; conditions: Clostridioides difficile, compound alone, no antibiotic; for MIC: overnight (18 hrs)
Protocol: (§4) […]. MIC was defined by the lowest concentration of the test compound that inhibits visible growth of pathogen of interest. The optical density of the pathogen of interest culture was measured by OD600.
(§5) […]. MBC was determined colony forming units (CFUs) enumeration by serially diluting and plating bacterial cultures on BHI plates.
(§6) . Thus, no antibiotic was used in Table 2.

E. faecalis OG1RF = test: Stand alone activity in vivo, mouse model of catheter-associated urinary tract infection (CAUTI); design: species or system Enterococcus faecalis; conditions: C57BL/6Ncr mice, 10 mg/kg intraperitoneally 24 hours post-infection, sacrificed 48 hours post-infection, compound alone
Protocol: Mice used in this study were six-week-old female wild-type C57BL/6Ncr mice. Mice were anesthetized by inhalation of isoflurane and implanted with a 5-mm length of platinum-cured silicone catheter. Then, mice were infected immediately following catheter implantation with 50 μl of ˜2×10^7 CFU of E. faecalis OG1RF in PBS (1 mL) was introduced in the bladder lumen by transurethral inoculation. […] Mice were sacrificed at 48 hours post-infection by cervical dislocation after anaesthesia inhalation, and the bladders were aseptically harvested. Subsequently, the silicone implant was retrieved from the bladder. Catheters were placed in 1×PBS (1 mL), sonicated for 10 min, to detach E. faecalis and bladders were homogenized in 1×PBS (1 mL).
Mice used in this study were six-week-old female wild-type C57BL/6Ncr mice. Mice were anesthetized by inhalation of isoflurane and implanted with a 5-mm length of platinum-cured silicone catheter.
Mice were sacrificed at 48 hours post-infection by cervical dislocation after anaesthesia inhalation, and the bladders were aseptically harvested. Subsequently, the silicone implant was retrieved from the bladder. Catheters were placed in 1×PBS (1 mL), sonicated for 10 min, to detach E. faecalis and bladders were homogenized in 1×PBS (1 mL). For bacterial enumeration on catheters and bladder, samples were serially diluted and plated on BHI for CFU enumeration.

Staph. saphyticus = test: MIC and MBC assays; assay type: cell-based; conditions: Staphylococcus, compound alone, no antibiotic; for MIC: overnight (18 hrs)
Protocol: as §4, §5, §6

Strep. pyogenes = test: MIC and MBC assays; assay type: cell-based; conditions: Streptococcus pyogenes, compound alone, no antibiotic; for MIC: overnight (18 hrs)
Protocol: as §4, §5, §6

Staph. aureus = test: MIC and MBC assays; assay type: cell-based; conditions: Staphylococcus aureus, compound alone, no antibiotic; for MIC: overnight (18 hrs)
Protocol: as §4, §5, §6

MRSA [2] = test: Effect of combination with Oxacillin on MRSA, CFU counts; assay type: cell-based, Methicillin-resistant Staphylococcus aureus; conditions: Oxacillin 9 μM and DMSO (no test compound), 37° C. 18 h
Protocol: The mixture (200 μL) was incubated at 37° C. for 18 h. A control without the test compound was performed in the same way.

Structure (SMILES) | MBC (Streptococcus) [µM] | MBC (E. faecalis) [µM] | MIC (E. faecalis) [µM] | MIC (MRSA [1]) [µM] | MBC (MRSA [1]) [µM] | MBC (C. diff) [µM] | MIC (C. diff) [µM] | reduction of bacterial titers in the bladder (E. faecalis OG1RF) | reduction of bacterial titers on the catheters (E. faecalis OG1RF) | MBC (Staph. saphyticus) [µM] | MIC (Staph. saphyticus) [µM] | MBC (Strep. pyogenes) [µM] | MIC (Strep. pyogenes) [µM] | MBC (Staph. aureus) [µM] | MIC (Staph. aureus) [µM] | reduction of bacterial titers in the bladder (E. faecalis OG1RF; 10 mg/kg) | CFUs/ml (MRSA [2]; MRSA OD 0.001) [CFUs/ml] | CFUs/ml (MRSA [2]; MRSA OD 0.1) [CFUs/ml] | CFUs/ml (MRSA [2]; MRSA OD 1) [CFUs/ml]
Cc1cccc(-c2sc3c(C4CC4)c(Cc4cccc5ccccc45)cc(=O)n3c2C(=O)O)c1 [Example 30, 5-Cyclopropyl-4-[(1-naphthyl)methyl]-2-oxo-8-(m-tolyl)-7-thia-1-azabicyclo[4.3.0]nona-3,5,8-triene-9-carboxylic acid] | 19 (≈ 8.85 µg/mL) | 100 (≈ 46.6 µg/mL) | 50 (≈ 23.3 µg/mL) | 25 (≈ 11.6 µg/mL) | 50 (≈ 23.3 µg/mL) | 50 (≈ 23.3 µg/mL) | 50 (≈ 23.3 µg/mL) | about 1.5 log units | about 1 log units | 12.5 (≈ 5.82 µg/mL) | 100 (≈ 46.6 µg/mL) | 12.5 (≈ 5.82 µg/mL) | 25 (≈ 11.6 µg/mL) | 50 (≈ 23.3 µg/mL) | 50 (≈ 23.3 µg/mL) |  |  |  | 
COc1c(Cc2cccc3ccccc23)cc(=O)n2c(C(=O)O)c(-c3ccc(OCCCC(C)C)c(C)c3)sc12 [Example 50, 1H-imidazol-1-ium 8-methoxy-2-(3-methyl-4((4-methylpentyl)oxy)phenyl)-7-(naphtalen-1-ylmethyl)-5-oxo-thiazolo[3,2-a]pyridine-3-carboxylate] |  |  |  |  |  |  |  |  |  |  |  |  |  |  |  | about 0.5 log units |  |  | 
O=C(O)C1CSc2c(-c3cccc(C(F)(F)F)c3)c(Cc3cccc4ccccc34)cc(=O)n21 (centres unmarked) [Example 38, 6-[(1-Naphthyl)methyl]-4-oxo-7-[m-(trifluoromethyl)phenyl]-1-thia-3a-aza-3-indancarboxylic acid] |  | 250 (≈ 120 µg/mL) | 200 (≈ 96.3 µg/mL) | 200 (≈ 96.3 µg/mL) | 250 (≈ 120 µg/mL) | 200 (≈ 96.3 µg/mL) | 200 (≈ 96.3 µg/mL) |  |  | 50 (≈ 24.1 µg/mL) | 250 (≈ 120 µg/mL) | 50 (≈ 24.1 µg/mL) | 50 (≈ 24.1 µg/mL) | 250 (≈ 120 µg/mL) | 200 (≈ 96.3 µg/mL) |  |  |  | 
CCCCCOc1ccc(-c2sc3c(C4CC4)c(Cc4cccc5ccccc45)cc(=O)n3c2C(=O)O)cc1C [Example 6, 5-Cyclopropyl-4-[(1-naphthyl)methyl]-2-oxo-8-[4-(pentyloxy)-3-methyl-phenyl]-7-thia-1-azabicyclo[4.3.0]nona-3,5,8-triene-9-carboxylic acid] | 23 (≈ 12.7 µg/mL) | 100 (≈ 55.2 µg/mL) | 200 (≈ 110 µg/mL) | 69 (≈ 38.1 µg/mL) | 37 (≈ 20.4 µg/mL) |  |  |  |  |  |  |  |  |  |  |  |  |  | 
COc1c(Cc2cccc3ccccc23)cc(=O)n2c(C(=O)O)c(-c3ccc(OCCCC(C)C)c(C)c3)sc12 [Example 23, 8-[4-(Isohexyloxy)-3-methyl-phenyl]-5-methoxy-4-[(1-naphthyl)methyl]-2-oxo-7-thia-1-azabicyclo[4.3.0]nona-3,5,8-triene-9-carboxylic acid] |  |  | > 100 | 45 (≈ 25 µg/mL) |  |  |  | about 1.5 log units | about 0.4 log units |  |  |  |  |  |  |  |  |  | 
O=C(O)C1C(c2ccccc2)Sc2c(-c3ccc4c(c3)OCO4)c(COc3cccc4ccccc34)cc(=O)n21 (centres unmarked) [Example 39, 6-[(1-Naphthyloxy)methyl]-4-oxo-2-phenyl-7-(1,3-Dioxa-5-indanyl)-1-thia-3a-aza-3-indancarboxylic acid] |  | 900 (≈ 495 µg/mL) | 400 (≈ 220 µg/mL) | 50 (≈ 27.5 µg/mL) | 50 (≈ 27.5 µg/mL) | 100 (≈ 55 µg/mL) | 100 (≈ 55 µg/mL) |  |  | 25 (≈ 13.7 µg/mL) | > 500 | 25 (≈ 13.7 µg/mL) | 12.5 (≈ 6.87 µg/mL) | 200 (≈ 110 µg/mL) | 50 (≈ 27.5 µg/mL) |  |  |  | 
CCCCCCOc1ccc(-c2sc3c(C4CC4)c(Cc4cccc5ccccc45)cc(=O)n3c2C(=O)O)cc1C [Example 1, 5-Cyclopropyl-8-[4-(hexyloxy)-3-methyl-phenyl]-4-[(1-naphthyl)methyl]-2-oxo-7-thia-1-azabicyclo[4.3.0]nona-3,5,8-triene-9-carboxylic acid] | 9 (≈ 5.09 µg/mL) | 25 (≈ 14.1 µg/mL) | 67 (≈ 37.9 µg/mL) | 20 (≈ 11.3 µg/mL) | 25 (≈ 14.1 µg/mL) |  |  |  |  |  |  |  |  |  |  |  |  |  | 
CCCOc1ccc(-c2sc3c(C4CC4)c(Cc4cccc5ccccc45)cc(=O)n3c2C(=O)O)cc1C [Example 2, 5-Cyclopropyl-4-[(1-naphthyl)methyl]-2-oxo-8-(4-propoxy-3-methyl-phenyl)-7-thia-1-azabicyclo[4.3.0]nona-3,5,8-triene-9-carboxylic acid] | 5 (≈ 2.62 µg/mL) |  | 250 (≈ 131 µg/mL) | 27 (≈ 14.1 µg/mL) | ≥ 50 |  |  |  |  |  |  |  |  |  |  |  |  |  | 
CCCCOc1ccc(-c2sc3c(C4CC4)c(Cc4cccc5ccccc45)cc(=O)n3c2C(=O)O)cc1C [Example 7, 8-(4-Butoxy-3-methyl-phenyl)-5-cyclopropyl-4-[(1-naphthyl)methyl]-2-oxo-7-thia-1-azabicyclo[4.3.0]nona-3,5,8-triene-9-carboxylic acid] | 7 (≈ 3.76 µg/mL) | 19 (≈ 10.2 µg/mL) | 95 (≈ 51.1 µg/mL) | 25 (≈ 13.4 µg/mL) | 32 (≈ 17.2 µg/mL) |  |  |  |  |  |  |  |  |  |  |  |  |  | 
CCCCOc1ccc(-c2sc3c(C4CC4)c(Cc4cccc5ccccc45)cc(=O)n3c2C(=O)O)cc1 [Example 13, 8-(p-Butoxyphenyl)-5-cyclopropyl-4-[(1-naphthyl)methyl]-2-oxo-7-thia-1-azabicyclo[4.3.0]nona-3,5,8-triene-9-carboxylic acid] | 3 (≈ 1.57 µg/mL) |  | 300 (≈ 157 µg/mL) | 31 (≈ 16.2 µg/mL) | 25 (≈ 13.1 µg/mL) |  |  |  |  |  |  |  |  |  |  |  |  |  | 
COc1ccc(-c2sc3c(C4CC4)c(Cc4cccc5ccccc45)cc(=O)n3c2C(=O)O)cc1C [Example 4, 5-Cyclopropyl-8-(4-methoxy-3-methyl-phenyl)-4-[(1-naphthyl)methyl]-2-oxo-7-thia-1-azabicyclo[4.3.0]nona-3,5,8-triene-9-carboxylic acid] | 9 (≈ 4.46 µg/mL) |  | 250 (≈ 124 µg/mL) | 200 (≈ 99.1 µg/mL) |  |  |  |  |  |  |  |  |  |  |  |  |  |  | 
CCOc1ccc(-c2sc3c(C4CC4)c(Cc4cccc5ccccc45)cc(=O)n3c2C(=O)O)cc1C [Example 5, 5-Cyclopropyl-8-(4-ethoxy-3-methyl-phenyl)-4-[(1-naphthyl)methyl]-2-oxo-7-thia-1-azabicyclo[4.3.0]nona-3,5,8-triene-9-carboxylic acid] | 10 (≈ 5.1 µg/mL) |  | 250 (≈ 127 µg/mL) | 150 (≈ 76.4 µg/mL) |  |  |  |  |  |  |  |  |  |  |  |  |  |  | 
O=C(O)c1c(Cc2ccccc2)sc2c(C3CC3)c(Cc3cccc4ccccc34)cc(=O)n12 [Example 28, 8-Benzyl-5-cyclopropyl-4-[(1-naphthyl)methyl]-2-oxo-7-thia-1-azabicyclo[4.3.0]nona-3,5,8-triene-9-carboxylic acid] |  | 100 (≈ 46.6 µg/mL) | 25 (≈ 11.6 µg/mL) | 25 (≈ 11.6 µg/mL) | 50 (≈ 23.3 µg/mL) | 50 (≈ 23.3 µg/mL) | 50 (≈ 23.3 µg/mL) | about 0.5 log units | about 0.4 log units | 25 (≈ 11.6 µg/mL) | 100 (≈ 46.6 µg/mL) | 25 (≈ 11.6 µg/mL) | 12.5 (≈ 5.82 µg/mL) | 50 (≈ 23.3 µg/mL) | 25 (≈ 11.6 µg/mL) |  |  |  | 
CCCOc1ccc(-c2sc3c(OC)c(Cc4cccc5ccccc45)cc(=O)n3c2C(=O)O)cc1C [Example 10, 5-Methoxy-4-[(1-naphthyl)methyl]-2-oxo-8-(4-propoxy-3-methyl-phenyl)-7-thia-1-azabicyclo[4.3.0]nona-3,5,8-triene-9-carboxylic acid] | 5 (≈ 2.57 µg/mL) | 50 (≈ 25.7 µg/mL) | 188 (≈ 96.6 µg/mL) | 17 (≈ 8.73 µg/mL) | 17 (≈ 8.73 µg/mL) |  |  |  |  |  |  |  |  |  |  |  |  |  | 
Cc1onc(-c2ccccc2)c1C(=O)N[C@@H]1C(=O)N2[C@@H]1SC(C)(C)[C@@H]2C(=O)O [Oxacillin, oxacillin, reference compound] |  |  |  |  |  |  |  |  |  |  |  |  |  |  |  |  | 600 | 1.6E+10 | 2.2E+09
O=C(O)C1CSc2c(-c3cccc(C(F)(F)F)c3)c(Cc3c4ccccc4cc4ccccc34)cc(=O)n21 (centres unmarked) [Example 37, 6-[(9-Anthryl)methyl]-4-oxo-7-[m-(trifluoromethyl)phenyl]-1-thia-3a-aza-3-indancarboxylic acid] |  | 400 (≈ 213 µg/mL) | 100 (≈ 53.2 µg/mL) | 25 (≈ 13.3 µg/mL) | 25 (≈ 13.3 µg/mL) | 50 (≈ 26.6 µg/mL) | 50 (≈ 26.6 µg/mL) |  |  | 25 (≈ 13.3 µg/mL) | > 500 | 12.5 (≈ 6.64 µg/mL) | 12.5 (≈ 6.64 µg/mL) | 50 (≈ 26.6 µg/mL) | 50 (≈ 26.6 µg/mL) |  |  |  | 
